PMC13576449, “Small-Molecule Activators of PRMT1: Discovery, SAR Analyses, and Proapoptotic Effects in Pancreatic Cancer Cells” (Journal of Medicinal Chemistry, 2026)

Experiments:
Assay type in all cases: biochemical
[1] = target: T1, FLAG-tagged PRMT1 (Rattus norvegicus, UniProt Q63009); assay: Fluorescence-based in vitro PRMT assay (F-PRMT assay), PRMT1; settings: for Experimental result (PRMT1): vs solvent control = 100%
T1 construct: Full-length FLAG-tagged PRMT protein; made in house; host or cells: Sf9 insect cells (baculovirus)
T1 sequence (Q63009 whole entry): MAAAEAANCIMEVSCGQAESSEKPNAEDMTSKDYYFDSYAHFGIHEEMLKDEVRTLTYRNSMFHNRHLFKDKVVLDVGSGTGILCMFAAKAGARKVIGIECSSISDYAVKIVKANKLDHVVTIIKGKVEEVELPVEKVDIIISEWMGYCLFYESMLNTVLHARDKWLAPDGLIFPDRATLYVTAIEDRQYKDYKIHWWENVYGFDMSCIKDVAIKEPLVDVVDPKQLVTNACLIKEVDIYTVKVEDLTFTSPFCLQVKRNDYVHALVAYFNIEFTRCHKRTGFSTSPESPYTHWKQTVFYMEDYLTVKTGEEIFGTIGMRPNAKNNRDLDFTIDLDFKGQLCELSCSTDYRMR

[2] = target: T2, FLAG-tagged PRMT3 (Homo sapiens, UniProt O60678); assay: Fluorescence-based in vitro PRMT assay (F-PRMT assay), PRMT3; settings: for Experimental result (PRMT3): vs solvent control = 100%
T2 construct: The complete ORFs of human PRMT3 and PRMT6 were inserted; made in house; host or cells: Sf9 insect cells (baculovirus)
T2 sequence (O60678 whole entry): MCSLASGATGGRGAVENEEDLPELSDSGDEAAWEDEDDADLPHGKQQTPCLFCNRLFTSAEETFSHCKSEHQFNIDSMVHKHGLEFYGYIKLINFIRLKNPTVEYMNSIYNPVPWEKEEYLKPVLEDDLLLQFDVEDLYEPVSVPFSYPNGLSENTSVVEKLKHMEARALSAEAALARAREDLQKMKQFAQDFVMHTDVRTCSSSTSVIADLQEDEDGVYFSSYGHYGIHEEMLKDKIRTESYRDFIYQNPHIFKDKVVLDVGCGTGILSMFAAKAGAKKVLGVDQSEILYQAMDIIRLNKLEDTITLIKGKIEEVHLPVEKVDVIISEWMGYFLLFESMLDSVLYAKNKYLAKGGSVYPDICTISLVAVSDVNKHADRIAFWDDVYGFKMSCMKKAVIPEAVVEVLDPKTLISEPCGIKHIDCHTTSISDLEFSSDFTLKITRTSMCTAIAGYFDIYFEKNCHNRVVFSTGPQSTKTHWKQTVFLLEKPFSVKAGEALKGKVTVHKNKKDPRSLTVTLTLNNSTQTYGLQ
Description: (§1) To evaluate the effects of the selected candidate molecules on the catalytic activity of type I enzymes, we employed a quantitative fluorescence-based in vitro PRMT activity (F-PRMT) assay using recombinant FLAG-tagged PRMT proteins expressed and affinity-purified from baculovirus-infected Sf9 cells (SI Figure S1, SI Figure S2A).
(§2) Human cell lines (PaTu8988T, PANC-1) were obtained from ATCC (American Type Culture Collection) and cultured in DMEM supplemented with 10% fetal calf serum (FCS, Gibco/BRL), 1% penicillin/streptomycin at 37 °C and 5% CO2. […] For PRMT1 inhibition, cells were treated with type I PRMT inhibitor MS023 hydrochloride (Biomol). For induction of genotoxic stress, cells were treated with gemcitabine (LC Laboratories). […] The following plasmids were used: pFASTBAC-FLAG-rat PRMT1, pFASTBAC-FLAG-mouse PRMT4, and pGEX-GAR. The complete ORFs of human PRMT3 and PRMT6 were inserted into the pFASTBAC HT-3xFLAG B vector via BamHI/HindIII and BamHI/XhoI sites, respectively.
(§3) For PRMT protein expression in insect cells, recombinant baculovirus (bacmid) was generated using the Bac-to-Bac baculovirus system (Invitrogen). Sf9 cells were transfected with bacmid DNA using X-tremeGENE HP DNA transfection reagent (Sigma-Aldrich) according to the manufacturer's instructions. After 3–5 days, supernatants were collected, filtered, and used to infect Sf9 cells to amplify the virus. After 2 rounds of virus amplification and estimation of the final P3 virus titer, the P3 virus (2–5 μL/10^6 cells) was applied for large-scale infection of 200 × 10^6 Sf9 cells in suspension culture at a density of 1 × 10^6 cells/mL. Cells were harvested 5–6 days post-infection by centrifugation at 500 g for 5 min at room temperature. Protein purification from baculovirus-infected Sf9 cells was performed as previously described. , Cells were lysed in BC buffer (20 mM HEPES pH 7.9, 250 mM NaCl, 10% (v/v) glycerin, 0.4 mM EDTA, 1 mM DTT) containing a protease inhibitor cocktail (Roche) by 3 freeze-thaw cycles. After centrifugation at 11,000 rpm (Sorval SS34 rotor) and 4 °C for 1 h, the supernatant (whole cell protein extract) was incubated with anti-FLAG M2 Affinity Gel (Cytiva) at 4 °C and under agitation for 4 h. Subsequently, beads were washed in BC buffer containing various NaCl concentrations (once in BC with 1 M NaCl, twice in BC with 500 mM NaCl, twice in BC with 250 mM NaCl and twice in BC with 100 mM NaCl). FLAG-tagged proteins were either maintained bead-bound as a 50% (v/v) slurry in BC buffer with 100 mM NaCl and stored at −80 °C or were eluted in the appropriate elution buffer (depending on the subsequent assay) containing 0.25 mg/mL 3xFLAG peptides (Sigma-Aldrich) at 4 °C for 30–45 min. To remove the FLAG-peptides from the eluate, dialysis was performed in elution buffer containing 10% (v/v) glycerol at 4 °C for 4–6 h using Slide-A-Lyzer Dialysis Devices (Thermo Fisher Scientific) according to the manufacturer’s recommendations.
(§4) In the first step, the fluorogenic substrate Nα-Benzoyl-L-arginine-7-amido-4-methylcoumarin (Bz-Arg-AMC, Sigma-Aldrich) undergoes methylation by PRMTs upon the addition of the cofactor SAM. In the second reaction step, trypsin cleaves the nonmethylated substrate, leading to the generation of the 7-amino-4-methylcoumarin product, which can be quantified by subsequent fluorescence measurement (excitation: 355 nm, emission: 460 nm). The first reaction was conducted with bead-bound PRMTs at a total volume of 100 μL. Each condition was performed as a technical triplicate to determine the mean and the standard deviation. […] For the negative controls, SAM was substituted with assay buffer. The incubation was continued at 37 °C and under agitation (1,000 rpm) for a duration of 2 h.

[3] = target: T3, FLAG-tagged PRMT4 (Mus musculus, UniProt Q9WVG6); assay: Fluorescence-based in vitro PRMT assay (F-PRMT assay), PRMT4; settings: for Experimental result (PRMT4): vs solvent control = 100%
T3 construct: Full-length FLAG-tagged PRMT protein; made in house; host or cells: Sf9 insect cells (baculovirus)
T3 sequence (Q9WVG6 1-608): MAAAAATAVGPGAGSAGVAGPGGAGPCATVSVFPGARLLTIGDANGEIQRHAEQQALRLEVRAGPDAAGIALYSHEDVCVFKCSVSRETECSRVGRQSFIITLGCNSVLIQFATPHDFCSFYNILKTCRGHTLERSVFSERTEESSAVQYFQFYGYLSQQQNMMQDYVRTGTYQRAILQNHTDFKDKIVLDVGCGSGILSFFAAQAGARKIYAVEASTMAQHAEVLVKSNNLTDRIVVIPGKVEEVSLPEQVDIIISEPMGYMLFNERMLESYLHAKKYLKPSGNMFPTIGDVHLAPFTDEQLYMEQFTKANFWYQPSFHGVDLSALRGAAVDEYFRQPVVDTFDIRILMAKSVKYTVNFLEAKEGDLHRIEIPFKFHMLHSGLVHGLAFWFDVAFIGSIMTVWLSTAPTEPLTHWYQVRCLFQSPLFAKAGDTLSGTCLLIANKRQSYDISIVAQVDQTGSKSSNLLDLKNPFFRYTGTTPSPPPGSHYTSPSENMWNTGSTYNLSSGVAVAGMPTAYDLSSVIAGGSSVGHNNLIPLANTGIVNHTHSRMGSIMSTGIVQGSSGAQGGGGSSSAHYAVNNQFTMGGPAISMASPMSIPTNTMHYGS
Description: as §1, §2, §3, §4

[4] = target: T4, FLAG-tagged PRMT6 (Homo sapiens, UniProt Q96LA8); assay: Fluorescence-based in vitro PRMT assay (F-PRMT assay), PRMT6; settings: for Experimental result (PRMT6): vs solvent control = 100%; for Efficacy ±Δ% (PRMT6): mean % difference of activity vs solvent control (100%), - inhibition, + activation
T4 construct: The complete ORFs of human PRMT3 and PRMT6 were inserted; made in house; host or cells: Sf9 insect cells (baculovirus)
T4 sequence (Q96LA8 whole entry): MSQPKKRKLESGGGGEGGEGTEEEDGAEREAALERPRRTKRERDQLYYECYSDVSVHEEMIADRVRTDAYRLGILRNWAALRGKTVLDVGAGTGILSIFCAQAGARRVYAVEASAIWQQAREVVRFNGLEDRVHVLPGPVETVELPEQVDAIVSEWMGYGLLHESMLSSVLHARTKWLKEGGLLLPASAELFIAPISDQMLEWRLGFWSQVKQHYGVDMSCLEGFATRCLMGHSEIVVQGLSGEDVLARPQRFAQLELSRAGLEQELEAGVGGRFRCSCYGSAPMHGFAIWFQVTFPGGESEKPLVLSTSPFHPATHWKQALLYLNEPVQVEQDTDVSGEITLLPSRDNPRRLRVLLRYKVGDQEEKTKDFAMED
Procedure, shortened: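 Baculovirus/Sf9-expressed FLAG-PRMTs (human PRMT3, PRMT6; mouse PRMT4), anti-FLAG purified and used bead-bound, methylated Bz-Arg-AMC with SAM for 2 h at 37 °C, 1,000 rpm. Technical triplicates; no-SAM negative controls.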

[5] = Table 1, 100 μM compound, 2 μM PRMT, n = 3, racemates used
[6] = Table 1, 100 μM compound, n = 3
[7] = Table S3, 100 µM compound, mean % difference vs solvent control (100%), n≥3

Experimental result (PRMT6) [4, 5] | Efficacy ±Δ% (PRMT6) [4, 6] [%] | effect on PRMT1 activity (in words) ([1]; 100 μM compound) | Compound | Experimental result (PRMT1) [1, 5] | Experimental result (PRMT3) [2, 5] | Experimental result (PRMT4) [3, 5] | Experimental result (PRMT3) ([2]; Table S3, 100 µM compound, n≥3) | Experimental result (PRMT4) ([3]; Table S3, 100 µM compound, n≥3) | Experimental result (PRMT6) ([4]; Table S3, 100 µM compound, n≥3) | other results
PRMT6 i |  |  | CNCc1cn(CC2CCN(c3ccc(C(C)=O)cn3)CC2)nn1 [Compound K002JS003] | PRMT1 n.e. (Compounds, which did not significantly affect the catalytic activity (less than ±6% change or not significant p-value), are marked with [drawing 8] (no effect)) | PRMT3 n.e. (Compounds, which did not significantly affect the catalytic activity (less than ±6% change or not significant p-value), are marked with [drawing 8] (no effect)) | PRMT4 n.e. (Compounds, which did not significantly affect the catalytic activity (less than ±6% change or not significant p-value), are marked with [drawing 8] (no effect)) |  |  |  | 
PRMT6 i | -8 |  | NCC(=O)Nc1ccc(NC(=O)c2ccco2)cc1 [Compound K002JS013] | PRMT1 n.e. (Compounds, which did not significantly affect the catalytic activity (less than ±6% change or not significant p-value), are marked with [drawing 8] (no effect)) | PRMT3 n.e. (Compounds, which did not significantly affect the catalytic activity (less than ±6% change or not significant p-value), are marked with [drawing 8] (no effect)) | PRMT4 i |  |  |  | Efficacy ±Δ% (PRMT4) ([3]; Table 1, 100 μM compound, mean % difference of activity vs solvent control (100%), - inhibition, + activation, n = 3): -50%
PRMT6 i | -8 |  | O=C(CC1COCCN1)N1CCC(N2CCc3ccccc3C2)CC1 (centres unmarked) [Compound K002JS014] | PRMT1 n.e. (Compounds, which did not significantly affect the catalytic activity (less than ±6% change or not significant p-value), are marked with [drawing 8] (no effect)) | PRMT3 n.e. (Compounds, which did not significantly affect the catalytic activity (less than ±6% change or not significant p-value), are marked with [drawing 8] (no effect)) | PRMT4 n.e. (Compounds, which did not significantly affect the catalytic activity (less than ±6% change or not significant p-value), are marked with [drawing 8] (no effect)) |  |  |  | 
 |  | slight inhibitory effect | O=C1NC(=O)c2ccccc2/C1=C/NCc1ccccc1 [TR-03, (Z)-4-[(Benzylamino)methylene]isoquinoline-1,3(2H,4H)-dione] |  |  |  | n.e. (did not significantly affect the catalytic activity (less than ±6% change or not significant p-value), are marked with n.e. (no effect)) | n.e. (did not significantly affect the catalytic activity (less than ±6% change or not significant p-value), are marked with n.e. (no effect)) | n.e. (did not significantly affect the catalytic activity (less than ±6% change or not significant p-value), are marked with n.e. (no effect)) | 
 |  |  | CN(C)Cc1cccc(N/C=C2\C(=O)NC(=O)c3ccccc32)c1 [TR-010] |  |  |  |  | n.e. (did not significantly affect the catalytic activity (less than ±6% change or not significant p-value), are marked with n.e. (no effect)) | n.e. (did not significantly affect the catalytic activity (less than ±6% change or not significant p-value), are marked with n.e. (no effect)) | activation at 100 µM ([1]; 100 μM compound, increase over solvent-treated activity, read-out: enhancement (increase) of PRMT1 enzymatic activity): ≥ 60%; Efficacy ±∆% (PRMT1) [1, 7]: +75%; Efficacy ±∆% (PRMT3) [2, 7]: +45%
 |  | no significant effect | O=C1NC(=O)c2ccccc2/C1=C/Nc1ccccc1 [TR-014, (Z)-4-[(Phenylamino)methylene]isoquinoline-1,3(2H,4H)-dione] |  |  |  | n.e. (did not significantly affect the catalytic activity (less than ±6% change or not significant p-value), are marked with n.e. (no effect)) | n.e. (did not significantly affect the catalytic activity (less than ±6% change or not significant p-value), are marked with n.e. (no effect)) | n.e. (did not significantly affect the catalytic activity (less than ±6% change or not significant p-value), are marked with n.e. (no effect)) | Experimental result (PRMT1) ([1]; Table S3, 100 µM compound, n≥3): n.e. (did not significantly affect the catalytic activity (less than ±6% change or not significant p-value), are marked with n.e. (no effect))
